Columns and labels:
[1] = system: patients with fasting triglyceride levels >200 mg/dl and <500 mg/dl despite statin therapy; assay: 12-week study: red blood cell fatty acids (EPA concentration, FADI ratios) by gas chromatography/flame ionization detection; format: in vivo, human; conditions: 4 g/day, placebo-adjusted, 12 weeks
Procedure: (§1) A multi-center, placebo-controlled, randomized, double-blind, 12-week study was performed to evaluate the efficacy and safety of >96% E-EPA in patients with fasting triglyceride levels >200 mg/dl and <500 mg/dl despite statin therapy (the mean of two qualifying entry values needed to be >185 mg/dl and at least one of the values needed to be >200 mg/dl). The primary objective of the study was to determine the efficacy of >96% E-EPA 2 g daily and 4 g daily, compared to placebo, in lowering fasting TG levels in patients with high risk for cardiovascular disease and with fasting TG levels 200 mg/dl and <500 mg/dl, despite treatment to LDL-C goal on statin therapy. The secondary objectives of this study were the following: • 1. To determine the safety and tolerability of >96% E-EPA 2 g daily and 4 g daily; • 2. To determine the effect of >96% E-EPA on lipid and apolipoprotein profiles including total cholesterol (TC), non-high-density lipoprotein cholesterol (non-HDL-C), low density lipoprotein cholesterol (LDL-C), high density lipoprotein cholesterol (HDL-C), and […]; • 3. To determine the effect of >96% E-EPA on lipoprotein associated phospholipase A2 (Lp-PLA2) from baseline to week 12; • 4. To determine the effect of >96% E-EPA on low-density lipoprotein (LDL) particle number and size; • 5. […]

[2] = system: patients with fasting triglyceride levels >200 mg/dl and <500 mg/dl despite statin therapy; assay: 12-week study: plasma fatty acids (EPA concentration, FADI ratios) by gas chromatography/flame ionization detection; format: in vivo, human; conditions: 4 g/day, placebo-adjusted, 12 weeks
Procedure: as §1

CC/C=C\C/C=C\C/C=C\C/C=C\C/C=C\CCCC(=O)OCC [AMR101, ethyl eicosapentaenoate]
FADI-16 (Palmitoleic acid/Palmitic acid, C16:1/C16:0), % Change, RBCs [1]: −15.7%
FADI-18 (Oleic acid/Stearic Acid, C18:1/C18:0), % Change, RBCs [1]: −3.1%
FADI-16 (Palmitoleic acid/Palmitic acid, C16:1/C16:0), % Change, Plasma [2]: −6.8%
FADI-18 (Oleic acid/Stearic Acid, C18:1/C18:0), % Change, Plasma [2]: −9.8%
